Measurements reported in ChEMBL document CHEMBL5550215, “Discovery of Novel Imidazo[1,2-a]pyridine-Based HDAC6 Inhibitors as an Anticarcinogen with a Cardioprotective Effect” (J Med Chem, 2024).
The source made the active and inactive calls. The rule behind the calls is not given here.

What was measured:
[1] = Tmax in male Sprague-Dawley rat at 7 mg/kg,iv measured upto 8 hrs by UPLC-MS/MS analysis; format: ADME, organism-based; details: in vivo
[2] = system: MGC-803; assay: Induction of apoptosis in human MGC-803 cells assessed as late apoptotic cells at 0.5 uM measured after 48 hrs by Annexin V-EGFP and PI staining based flow cytometry analysis (reference value: 3.16%); format: functional
[3] = Observed apparent volume of distribution in male Sprague-Dawley rat at 7 mg/kg,iv measured upto 8 hrs by UPLC-MS/MS analysis; format: ADME, organism-based; details: in vivo, read-out: Vz
[4] = system: MGC-803; assay: Induction of apoptosis in human MGC-803 cells assessed as viable cells at 0.5 uM measured after 48 hrs by Annexin V-EGFP and PI staining based flow cytometry analysis (reference value: 92.3%); format: functional; details: read-out: Activity
[5] = system: Mus musculus; assay: Cardioprotective activity against myocardial ischemia/reperfusion induced C57BL/6J mouse model assessed as reduction in IL-1 beta expression at 2.5 to 10 mg/kg; format: functional, organism-based; details: dose 2.5-10 mg/kg
[6] = system: MGC-803; assay: Induction of apoptosis in human MGC-803 cells assessed as viable cells at 1 uM measured after 48 hrs by Annexin V-EGFP and PI staining based flow cytometry analysis (reference value: 92.3%); format: functional; details: read-out: Activity
[7] = system: AGS; assay: Antiproliferative activity against human AGS cells assessed as inhibition of cell growth by MTT assay
[8] = Toxicity in C57BL/6 mouse assessed as cell necrosis at 25 to 50 mg/kg, ip by H and E staining based analysis; format: organism-based; details: in vivo, dose 25-50 mg/kg
[9] = system: PC-3; assay: Antiproliferative activity against human PC-3 cells assessed as inhibition of cell growth by MTT assay
[10] = AUClast in male Sprague-Dawley rat at 7 mg/kg,po measured upto 8 hrs by UPLC-MS/MS analysis; format: ADME, organism-based; details: in vivo
[11] = system: MGC-803; assay: Induction of apoptosis in human MGC-803 cells assessed as early apoptotic cells at 0.5 uM measured after 48 hrs by Annexin V-EGFP and PI staining based flow cytometry analysis (reference value: 0.66%); format: functional
[12] = system: MGC-803; assay: Induction of apoptosis in human MGC-803 cells measured after 48 hrs by Annexin V-EGFP and PI staining based flow cytometry analysis; format: functional, cell-based; details: dose <= 2.0 µM
[13] = system: H9c2; assay: Cardioprotective activity in H2O2 induced myocardial injury in rat H9c2 cells assessed as decrease in cell contraction at 2 to 8 uM; format: functional, cell-based; details: dose 2-8 µM
[14] = system: TE-1; assay: Antiproliferative activity against human TE-1 cells assessed as inhibition of cell growth by MTT assay
[15] = biological target: Histone deacetylase 1 (Homo sapiens, UniProt Q13547); assay: Induction of thermal stabilization of HDAC1 in human MGC-803 cells at 48 degree C st 20 uM incubated for 4 hrs by CETSA; format: cell-based
Histone deacetylase 1, sequence (Q13547 whole entry): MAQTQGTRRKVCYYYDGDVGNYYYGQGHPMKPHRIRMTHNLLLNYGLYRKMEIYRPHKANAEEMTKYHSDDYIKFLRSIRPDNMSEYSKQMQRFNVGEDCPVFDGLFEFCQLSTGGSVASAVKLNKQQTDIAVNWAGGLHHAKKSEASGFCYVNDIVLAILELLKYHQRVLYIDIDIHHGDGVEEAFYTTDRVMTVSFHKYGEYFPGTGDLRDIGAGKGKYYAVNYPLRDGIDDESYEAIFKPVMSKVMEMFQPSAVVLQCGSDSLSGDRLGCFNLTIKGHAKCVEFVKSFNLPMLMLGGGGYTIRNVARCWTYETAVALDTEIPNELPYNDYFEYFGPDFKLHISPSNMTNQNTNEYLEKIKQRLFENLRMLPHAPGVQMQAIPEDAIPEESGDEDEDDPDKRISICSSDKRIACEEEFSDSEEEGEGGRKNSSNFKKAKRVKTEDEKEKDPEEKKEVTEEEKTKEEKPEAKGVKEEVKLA

[16] = system: H9c2; assay: Cardioprotective activity against H2O2 induced myocardial damage in rat H9c2 cells harbouring Ad.HDAC6 assessed as reversal of IL-1 beta expression at 8 uM; format: functional, cell-based
[17] = system: H9c2; assay: Cardioprotective activity in H2O2 induced myocardial injury in rat H9c2 cells assessed as decrease in cell death at 2 to 8 uM; format: functional, cell-based; details: dose 2-8 µM
[18] = Tmax in male Sprague-Dawley rat at 7 mg/kg,po measured upto 8 hrs by UPLC-MS/MS analysis; format: ADME, organism-based; details: in vivo
[19] = system: MGC-803; assay: Antitumor activity against human MGC-803 cells xenografted in […] mouse model assessed as decrease in HDAC6 expression administered as IP dose by Western blot analysis; format: functional, cell-based; details: dose 25-50 mg/kg
[20] = Toxicity in C57BL/6 mouse assessed as lesions in myocardial tissue at 25 to 50 mg/kg, ip by H and E staining based analysis; format: organism-based; details: in vivo, dose 25-50 mg/kg
[21] = Cmax in male Sprague-Dawley rat at 7 mg/kg,po measured upto 8 hrs by UPLC-MS/MS analysis; format: ADME, organism-based; details: in vivo
[22] = Observed clearance in male Sprague-Dawley rat at 7 mg/kg,iv measured upto 8 hrs by UPLC-MS/MS analysis; format: ADME, organism-based; details: in vivo
[23] = system: SMMC-7721; assay: Antiproliferative activity against human SMMC-7721 cells assessed as inhibition of cell growth by MTT assay
[24] = system: H9c2; assay: Cardioprotective activity in H2O2 induced myocardial injury in rat H9c2 cells assessed as effect on LC3 level at upto 8 uM by q-PCR analysis; format: functional, cell-based
[25] = Half life in male Sprague-Dawley rat at 7 mg/kg,iv measured upto 8 hrs by UPLC-MS/MS analysis; format: ADME, organism-based; details: in vivo
[26] = AUClast in male Sprague-Dawley rat at 7 mg/kg,iv measured upto 8 hrs by UPLC-MS/MS analysis; format: ADME, organism-based; details: in vivo
[27] = system: H9c2; assay: Protection against H2O2 induced myocardial cell injury in rat H9c2 cells at 10 uM pretreated for 24 hrs followed by H2O2 exposure and measured after 1.5 hrs (reference value: 17.91 to 57.32%); format: functional; details: time 25.5 hrs
[28] = system: MGC-803; assay: Induction of apoptosis in human MGC-803 cells assessed as viable cells at 2 uM measured after 48 hrs by Annexin V-EGFP and PI staining based flow cytometry analysis (reference value: 92.3%); format: functional; details: read-out: Activity
[29] = system: PANC-1; assay: Antiproliferative activity against human PANC-1 cells assessed as inhibition of cell growth by MTT assay
[30] = Cmax in male Sprague-Dawley rat at 7 mg/kg,iv measured upto 8 hrs by UPLC-MS/MS analysis; format: ADME, organism-based; details: in vivo
[31] = system: H9c2; assay: Cardioprotective activity against H2O2 induced myocardial damage in rat H9c2 cells harbouring Ad.HDAC6 assessed as reversal of IL-18 expression at 8 uM; format: functional, cell-based
[32] = system: H9c2; assay: Cardioprotective activity against H2O2 induced myocardial damage in rat H9c2 cells harbouring Ad.GFP assessed as decrease in LDH leakage rate at 8 uM by absorbance based analysis; format: functional, cell-based
[33] = system: Mus musculus; assay: Cardioprotective activity against myocardial ischemia/reperfusion induced C57BL/6J mouse model assessed as alleviation of extensive myocardial necrosis at 10 mg/kg by H and E staining based analysis; format: functional, organism-based
[34] = system: MKN-45; assay: Antiproliferative activity against human MKN-45 cells assessed as inhibition of cell growth by MTT assay
[35] = system: H9c2; assay: Cardioprotective activity in H2O2 induced myocardial injury in rat H9c2 cells assessed as downregulation of IL-18 mRNA level at upto 8 uM by q-PCR analysis; format: functional, cell-based
[36] = system: Mus musculus; assay: Cardioprotective activity against myocardial ischemia/reperfusion induced C57BL/6J mouse model assessed as reduction in myocardial infarction area at 10 mg/kg (reference value: 72.19%); format: functional; set-up: scale not given: the % may be the effect or the level left
[37] = Toxicity in C57BL/6 mouse assessed as appearance of inflammatory cell infiltration at 25 to 50 mg/kg, ip by H and E staining based analysis; format: organism-based; details: in vivo, dose 25-50 mg/kg
[38] = system: MGC-803; assay: Antimetastatic activity in human MGC-803 cells; format: functional, cell-based; details: dose <= 2.0 µM
[39] = system: Mus musculus; assay: Cardioprotective activity against myocardial ischemia/reperfusion induced C57BL/6J mouse model assessed as alleviation of leukocyte infiltration at 10 mg/kg by H and E staining based analysis; format: functional, organism-based
[40] = system: MGC-803; assay: Induction of apoptosis in human MGC-803 cells assessed as early apoptotic cells at 2 uM measured after 48 hrs by Annexin V-EGFP and PI staining based flow cytometry analysis (reference value: 0.66%); format: functional

O=C(NO)c1ccc(CNC(=O)c2cc(-c3ccc(F)cc3)cn3ccnc23)cc1
Tmax [1]: 5 min | Activity [2]: 15% | Vd [3]: 25.5 L/kg | viability at 0.5 µM [4]: 70.5% | Activity [5]: Active | viability at 1 µM [6]: 77.2% | IC50 [7]: > 10 µM | Activity [8]: Non-Toxic | IC50 [9]: > 10 µM | AUC(0-t) at 8 h [10]: 54.2 ng·h/mL | Activity [11]: 0.52% | Activity [12]: Dose-Dependent Effect | Activity [13]: Active | IC50 [14]: 4.5 µM | Activity [15]: inactive | Activity [16]: Active | Activity [17]: Active | Tmax [18]: 1 h | Activity [19]: Dose-Dependent Effect | Activity [20]: Non-Toxic | Cmax [21]: 27.5 ng/mL | clearance [22]: 134 mL/min/kg | IC50 [23]: 2.74 µM | Activity [24]: inactive | half-life [25]: 2.19 h | AUC(0-t) at 8 h [26]: 740 ng·h/mL | Activity [27]: 66.13% | viability at 2 µM [28]: 70.1% | IC50 [29]: 3.79 µM | Cmax [30]: 807 ng/mL | Activity [31]: Active | Activity [32]: Active | Activity [33]: Active | IC50 [34]: 7.43 µM | Activity [35]: Active | Activity [36]: 37.64% | Activity [37]: Non-Toxic | Activity [38]: Dose-Dependent Effect | Activity [39]: Active | Activity [40]: 0.7%
